From patent US8048862B2, “Macrocyclic inhibitors of hepatitis C virus replication” (priority 2008, dated 2011)
Where two headings read alike, the source gives them in different places.

Columns and labels:
NS3/NS4 complexes = NS3/NS4 complexes (Hepatitis C virus genotype 1a, UniProt P27958); test: NS3/NS4 inhibition activity (IC50); format: biochemical
Summary of the method: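 Buffer: 50 mM Tris-HCl (pH 7.5), 10 mM DTT, 25 μM NS4A peptide, 0.6 mM LDAO and 15% glycerol. Assays were run at 23 °C with preformed NS3/NS4 complex, and the compound concentration giving inhibition was derived as an IC50.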

hepatitis C replicon = hepatitis C replicon EC50; format: cell-based; details: Hepatitis C virus, hepatitis C replicon, read-out: EC50
Text: NS3-NS4 inhibition activity can be determined using known assay methods.

Chain of NS3/NS4 complexes (P27958 1027-1657): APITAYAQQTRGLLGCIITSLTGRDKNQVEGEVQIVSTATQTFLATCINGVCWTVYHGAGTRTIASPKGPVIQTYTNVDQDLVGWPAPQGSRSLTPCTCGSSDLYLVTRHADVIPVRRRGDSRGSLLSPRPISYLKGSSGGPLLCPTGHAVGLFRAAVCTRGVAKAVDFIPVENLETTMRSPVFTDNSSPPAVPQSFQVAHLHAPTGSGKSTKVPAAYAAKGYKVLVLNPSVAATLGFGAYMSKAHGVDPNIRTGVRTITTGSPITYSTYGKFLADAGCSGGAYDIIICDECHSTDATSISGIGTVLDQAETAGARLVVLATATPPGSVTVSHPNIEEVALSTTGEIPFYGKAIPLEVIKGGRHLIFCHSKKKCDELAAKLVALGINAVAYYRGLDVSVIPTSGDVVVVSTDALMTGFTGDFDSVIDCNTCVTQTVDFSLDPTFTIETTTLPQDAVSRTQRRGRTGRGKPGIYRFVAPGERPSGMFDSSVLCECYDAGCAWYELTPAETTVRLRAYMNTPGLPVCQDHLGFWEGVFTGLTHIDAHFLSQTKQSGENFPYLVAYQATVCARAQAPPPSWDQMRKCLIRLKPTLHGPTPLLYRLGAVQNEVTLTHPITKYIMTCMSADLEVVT
Chain of NS3/NS4 complexes (P27958 1658-1711): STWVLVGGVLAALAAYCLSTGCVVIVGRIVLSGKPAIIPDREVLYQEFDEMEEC

SMILES	IC50 (NS3/NS4 complexes; Table 2, read-out: IC50) [nM]	EC50 (hepatitis C replicon; Table 2) [nM]	IC50 (NS3/NS4 complexes; IC50, Table 3) [nM]	EC50 (hepatitis C replicon; Table 3) [nM]	IC50 (NS3/NS4 complexes; Table 3, read-out: IC50) [nM]
COc1ccc2c(O[C@@H]3C[C@H]4C(=O)N[C@]5(C(=O)NS(=O)(=O)C6CC6)C[C@H]5/C=C\CCCCC[C@H](Nc5ccc(C(F)(F)F)cc5)C(=O)N4C3)cc(-c3nc(C(C)C)cs3)nc2c1C [Compound 446]	< 10	< 10			
COc1ccc2c(O[C@@H]3C[C@H]4C(=O)N[C@]5(C(=O)NS(=O)(=O)C6CC6)C[C@H]5/C=C\CCCCC[C@H](Nc5ccc(F)c(C(F)(F)F)c5)C(=O)N4C3)cc(-c3nc(C(C)C)cs3)nc2c1C [Compound 447]	< 10	< 10			
COc1ccc2c(O[C@@H]3C[C@H]4C(=O)N[C@]5(C(=O)O)C[C@H]5/C=C\CCCCC[C@H](Nc5ccccc5)C(=O)N4C3)cc(-c3nc(C(C)C)cs3)nc2c1C [Compound 449]	< 10	10 to 75			
COc1ccc2c(O[C@@H]3C[C@H]4C(=O)N[C@]5(C(=O)NS(=O)(=O)N6CCCC6)C[C@H]5/C=C\CCCCC[C@H](Nc5ccccc5)C(=O)N4C3)cc(-c3nc(C(C)C)cs3)nc2c1C [Compound 455]	< 10	< 10			
COc1ccc2c(O[C@@H]3C[C@H]4C(=O)N[C@]5(C(=O)NS(=O)(=O)N6CCCCC6)C[C@H]5/C=C\CCCCC[C@H](Nc5ccccc5)C(=O)N4C3)cc(-c3nc(C(C)C)cs3)nc2c1C [Compound 456]	< 10	10 to 75			
COc1ccc2c(O[C@@H]3C[C@H]4C(=O)N[C@]5(C(=O)NS(=O)(=O)N(C)C)C[C@H]5/C=C\CCCCC[C@H](Nc5cccc(C(F)(F)F)c5)C(=O)N4C3)cc(-c3nc(C(C)C)cs3)nc2c1C [Compound 457]	< 10	< 10			
COc1ccc2c(O[C@@H]3C[C@H]4C(=O)N[C@]5(C(=O)NS(=O)(=O)N(C)C)C[C@H]5/C=C\CCCCC[C@H](Nc5ccc(C(F)(F)F)cc5)C(=O)N4C3)cc(-c3nc(C(C)C)cs3)nc2c1C [Compound 458]	< 10	10 to 75			
COc1ccc2c(O[C@@H]3C[C@H]4C(=O)N[C@]5(C(=O)NS(=O)(=O)N(C)C)C[C@H]5/C=C\CCCCC[C@H](Nc5ccc(F)c(C(F)(F)F)c5)C(=O)N4C3)cc(-c3nc(C(C)C)cs3)nc2c1C [Compound 459]	< 10	< 10			
COc1ccc2c(O[C@@H]3C[C@H]4C(=O)N[C@]5(C(=O)NS(=O)(=O)N(C)C)C[C@H]5/C=C\CCCCC[C@H](Nc5cc(F)cc(C(F)(F)F)c5)C(=O)N4C3)cc(-c3nc(C(C)C)cs3)nc2c1C [Compound 460]	< 10	< 10			
CC(C)n1c(O[C@@H]2C[C@H]3C(=O)N[C@]4(C(=O)NS(=O)(=O)C5(C)CC5)C[C@H]4/C=C\CCCCC[C@H](Nc4ccccc4)C(=O)N3C2)nc2ccc(F)cc21 [Compound 461]	< 10	10 to 75			
Cc1ccc2nc(O[C@@H]3C[C@H]4C(=O)N[C@]5(C(=O)NS(=O)(=O)C6(C)CC6)C[C@H]5/C=C\CCCCC[C@H](Nc5ccccc5)C(=O)N4C3)n(C(C)C)c2c1 [Compound 462]	< 10	10 to 75			
CC(C)n1c(O[C@@H]2C[C@H]3C(=O)N[C@]4(C(=O)NS(=O)(=O)C5(C)CC5)C[C@H]4CCCCCCC[C@H](Nc4cc(F)cc(C(F)(F)F)c4)C(=O)N3C2)nc2ccccc21 [Compound 465]	< 10	75 to 500			
CCn1c(O[C@@H]2C[C@H]3C(=O)N[C@]4(C(=O)NS(=O)(=O)C5(C)CC5)C[C@H]4CCCCCCC[C@H](Nc4cc(F)cc(C(F)(F)F)c4)C(=O)N3C2)nc2ccccc21 [Compound 466]	< 10	75 to 500			
CC(C)n1c(O[C@@H]2C[C@H]3C(=O)N[C@]4(C(=O)NS(=O)(=O)C5(C)CC5)C[C@H]4/C=C\CCCCC[C@H](Nc4ccccc4)C(=O)N3C2)nc2cccc(F)c21 [Compound 467]	< 10	10 to 75			
CC(C)n1c(O[C@@H]2C[C@H]3C(=O)N[C@]4(C(=O)NS(=O)(=O)C5(C)CC5)C[C@H]4/C=C\CCCCC[C@H](Nc4ccccc4)C(=O)N3C2)nc2cc(F)ccc21 [Compound 468]	< 10	< 10			
CC(C)n1c(O[C@@H]2C[C@H]3C(=O)N[C@]4(C(=O)NS(=O)(=O)C5(C)CC5)C[C@H]4/C=C\CCCCC[C@H](Nc4ccccc4)C(=O)N3C2)nc2c(F)cccc21 [Compound 469]	< 10	< 10			
Cc1ccc2c(c1)nc(O[C@@H]1C[C@H]3C(=O)N[C@]4(C(=O)NS(=O)(=O)C5(C)CC5)C[C@H]4/C=C\CCCCC[C@H](Nc4ccccc4)C(=O)N3C1)n2C(C)C [Compound 470]	< 10	10 to 75			
Cc1cccc2c1nc(O[C@@H]1C[C@H]3C(=O)N[C@]4(C(=O)NS(=O)(=O)C5(C)CC5)C[C@H]4/C=C\CCCCC[C@H](Nc4ccccc4)C(=O)N3C1)n2C(C)C [Compound 471]	< 10	10 to 75			
COc1ccc2c(O[C@@H]3C[C@H]4C(=O)N[C@]5(C(=O)NS(=O)(=O)C6(C)CC6)C[C@H]5/C=C\CCCCC[C@H](Nc5ccccc5C)C(=O)N4C3)cc(-c3nc(C(C)C)cs3)nc2c1C [Compound 472]	< 10	10 to 75			

SMILES	IC50 (NS3/NS4 complexes; Table 2, read-out: IC50) [nM]	EC50 (hepatitis C replicon; Table 2) [nM]	IC50 (NS3/NS4 complexes; IC50, Table 3) [nM]	EC50 (hepatitis C replicon; Table 3) [nM]	IC50 (NS3/NS4 complexes; Table 3, read-out: IC50) [nM]
COc1ccc2c(O[C@@H]3C[C@H]4C(=O)N[C@]5(C(=O)NS(=O)(=O)C6(C)CC6)C[C@H]5/C=C\CCCCC[C@H](Nc5ccc(F)c(F)c5)C(=O)N4C3)cc(-c3nc(C(C)C)cs3)nc2c1C [Compound 473]	< 10	< 10			
CNC(=O)c1cccc(N[C@H]2CCCCC/C=C\[C@@H]3C[C@@]3(C(=O)NS(=O)(=O)C3(C)CC3)NC(=O)[C@@H]3C[C@@H](Oc4cc(-c5nc(C(C)C)cs5)nc5c(C)c(OC)ccc45)CN3C2=O)c1 [Compound 474]	< 10	< 10			
COc1ccc2c(O[C@@H]3C[C@H]4C(=O)N[C@]5(C(=O)NS(=O)(=O)C6(C)CC6)C[C@H]5/C=C\CCCCC[C@H](Nc5cccc(NC(C)=O)c5)C(=O)N4C3)cc(-c3nc(C(C)C)cs3)nc2c1C [Compound 475]	< 10	< 10			
COc1ccc2c(O[C@@H]3C[C@H]4C(=O)N[C@]5(C(=O)NS(=O)(=O)C6(C)CC6)C[C@H]5/C=C\CCCCC[C@H](Nc5cccc(C#N)c5)C(=O)N4C3)cc(-c3nc(C(C)C)cs3)nc2c1C [Compound 476]	< 10	< 10			
COc1ccc2c(O[C@@H]3C[C@H]4C(=O)N[C@]5(C(=O)NS(=O)(=O)C6(C)CC6)C[C@H]5/C=C\CCCCC[C@H](Nc5cccc(C)c5)C(=O)N4C3)cc(-c3nc(C(C)C)cs3)nc2c1C [Compound 477]	< 10	< 10			
COc1cccc(N[C@H]2CCCCC/C=C\[C@@H]3C[C@@]3(C(=O)NS(=O)(=O)C3(C)CC3)NC(=O)[C@@H]3C[C@@H](Oc4cc(-c5nc(C(C)C)cs5)nc5c(C)c(OC)ccc45)CN3C2=O)c1 [Compound 478]	< 10	75 to 500			
COc1ccc2c(O[C@@H]3C[C@H]4C(=O)N[C@]5(C(=O)NS(=O)(=O)C6(C)CC6)C[C@H]5/C=C\CCCCC[C@H](Nc5cccc(C(=O)N(C)C)c5)C(=O)N4C3)cc(-c3nc(C(C)C)cs3)nc2c1C [Compound 479]	< 10	< 10			
COc1ccc2c(O[C@@H]3C[C@H]4C(=O)N[C@]5(C(=O)NS(=O)(=O)C6(C)CC6)C[C@H]5/C=C\CCCCC[C@H](Nc5cc(F)c(F)c(F)c5)C(=O)N4C3)cc(-c3nc(C(C)C)cs3)nc2c1C [Compound 480]	< 10	10 to 75			
COc1ccc2c(O[C@@H]3C[C@H]4C(=O)N[C@]5(C(=O)NS(=O)(=O)C6(C)CC6)C[C@H]5/C=C\CCCCC[C@H](Nc5ccc(C#N)cc5)C(=O)N4C3)cc(-c3nc(C(C)C)cs3)nc2c1C [Compound 481]	< 10	< 10			
COc1ccc2c(O[C@@H]3C[C@H]4C(=O)N[C@]5(C(=O)NS(=O)(=O)C6(C)CC6)C[C@H]5/C=C\CCCCC[C@H](Nc5cc(C)cc(F)c5)C(=O)N4C3)cc(-c3nc(C(C)C)cs3)nc2c1C [Compound 482]	< 10	< 10			
CC1(S(=O)(=O)NC(=O)[C@@]23C[C@H]2/C=C\CCCCC[C@H](Nc2ccccc2)C(=O)N2C[C@H](Oc4nc5ccccc5nc4-c4cccs4)C[C@H]2C(=O)N3)CC1 [Compound 486]	< 10	10 to 75			
COc1ccc2c(O[C@@H]3C[C@H]4C(=O)N[C@]5(C(=O)NS(=O)(=O)C6(C)CC6)C[C@H]5/C=C\CCCCC[C@H](Nc5ccccc5F)C(=O)N4C3)cc(-c3nc(C(C)C)cs3)nc2c1C [Compound 492]	< 10	10 to 75			
CC(C)(C)OC(=O)N[C@H]1CCCCC/C=C\[C@@H]2C[C@@]2(C(=O)NS(=O)(=O)C2(C)CC2)NC(=O)[C@@H]2C[C@@H](Oc3nc4ccccc4n3COCC[Si](C)(C)C)CN2C1=O [Compound 701]			< 10	10 to 100	
CC(C)(C)OC(=O)N[C@H]1CCCCC/C=C\[C@@H]2C[C@@]2(C(=O)O)NC(=O)[C@@H]2C[C@@H](Oc3nc4ccccc4s3)CN2C1=O [Compound 1001]				> 100	10 to 100
CCn1c(O[C@@H]2C[C@H]3C(=O)N[C@]4(C(=O)NS(=O)(=O)C5CC5)C[C@H]4/C=C\CCCCC[C@H](NC(=O)OC(C)(C)C)C(=O)N3C2)nc2ccccc21 [Compound 1007]				< 10	< 10
CC(C)(C)OC(=O)N[C@H]1CCCCC/C=C\[C@@H]2C[C@@]2(C(=O)NS(=O)(=O)C2(C)CC2)NC(=O)[C@@H]2C[C@@H](Oc3nc4ccccc4s3)CN2C1=O [Compound 1008]				< 10	< 10
CC(C)(C)OC(=O)N[C@H]1CCCCC/C=C\[C@@H]2C[C@@]2(C(=O)NS(=O)(=O)C2CC2)NC(=O)[C@@H]2C[C@@H](Oc3nc4ccccc4s3)CN2C1=O [Compound 1009]				< 10	< 10
CC(C)(C)OC(=O)N[C@H]1CCCCC/C=C\[C@@H]2C[C@@]2(C(=O)NS(=O)(=O)C2CC2)NC(=O)[C@@H]2C[C@@H](Oc3nc4ccc(F)cc4s3)CN2C1=O [Compound 1010]				10 to 100	< 10
